{
  "source": "ChEMBL document CHEMBL5390201",
  "about": "“The Natural Alkaloid (-)-N-Hydroxyapiosporamide Suppresses Colorectal Tumor Progression as an NF-κB Pathway Inhibitor by Targeting the TAK1-TRAF6 Complex” (J Nat Prod, 2023)",
  "key": {"HCT-116 [1]": {"test_system": "HCT-116", "assay": "Induction of apoptosis in human HCT-116 cells assessed as late apoptotic cells at 0.25 uM incubated for 24 hrs by Annexin V-FITC/PI staining based flow cytometric analysis (reference value: 2.9 %)", "type": "functional"}, "Mus musculus [2]": {"test_system": "Mus musculus", "assay": "In vivo inhibition of NFkappaB activation in athymic BALB/c mouse xenografted with human HT-29 cells assessed as reduction in IL-8 gene expression in tumor at 5 to 15 mg/kg, ip administered every other day and measured after 14 days by qRT-PCR analysis", "type": "functional, organism-based", "conditions": "dose 5-15 mg/kg, time 14.0 day"}, "HCT-116 [3]": {"test_system": "HCT-116", "assay": "Induction of apoptosis in human HCT-116 cells assessed as late apoptotic cells at 1 uM incubated for 24 hrs by Annexin V-FITC/PI staining based flow cytometric analysis (reference value: 2.9 %)", "type": "functional"}, "[4]": {"assay": "Toxicity in athymic nude BALB/c mouse assessed as change in serum creatine kinase level at 5 to 15 mg/kg, ip administered every other day and measured after 14 days", "type": "organism-based", "conditions": "in vivo, 336 h, dose 5-15 mg/kg, time 14 day"}, "HCT-116 [5]": {"test_system": "HCT-116", "assay": "Induction of apoptosis in human HCT-116 cells assessed as inhibition of caspase 8 protein expression measured for 24 hrs by Western blot analysis", "type": "functional, cell-based", "conditions": "dose 0-10 µM"}, "[6]": {"assay": "Toxicity in athymic nude BALB/c mouse xenografted with human HT-29 cells assessed as reduction in body weight at 5 to 15 mg/kg, ip administered every other day and measured every other day for 16 days", "type": "organism-based", "conditions": "in vivo, 384 h, dose 5-15 mg/kg, time 16 day"}, "HT-29 [7]": {"test_system": "HT-29", "assay": "Antitumor activity against human HT-29 cells xenografted in athymic nude BALB/c mouse assessed as reduction in tumor volume at 5 to 15 mg/kg, ip administered every other day and measured every other day for 16 days", "type": "functional, organism-based", "conditions": "dose 5-15 mg/kg, time 16.0 day"}, "HCT-116 [8]": {"test_system": "HCT-116", "assay": "Induction of autophagy in human HCT-116 cells assessed as increase in LC3I to LC3II conversion at 1 to 10 uM incubated for 24 hrs by Western blotting analysis", "type": "functional, cell-based", "conditions": "dose 1-10 µM"}, "HCT-116 [9]": {"test_system": "HCT-116", "assay": "Induction of apoptosis in human HCT-116 cells assessed as necrotic cells at 5 uM incubated for 24 hrs by Annexin V-FITC/PI staining based flow cytometric analysis (reference value: 0.69 %)", "type": "functional"}, "HT-29 [10]": {"test_system": "HT-29", "assay": "Induction of apoptosis in human HT-29 cells assessed as necrotic cells at 0.5 uM incubated for 24 hrs by Annexin V-FITC/PI staining based flow cytometric analysis (reference value: 0.14 %)", "type": "functional"}, "HT-29 [11]": {"test_system": "HT-29", "assay": "Induction of autophagy in human HT-29 cells transfected with GFP-LC3 assessed as increase in LC3 dot puncta at 1 to 10 uM incubated for 24 hrs by fluorescence microscopy", "type": "functional, cell-based", "conditions": "dose 1-10 µM"}, "Cell membrane [12]": {"test_system": "Cell membrane", "assay": "Disruption of mitochondrial membrane potential in human HT-29 cells at upto 10 uM measured after 24 hrs by JC-1 staining based fluorescence microscopy", "type": "subcellular"}, "HT-29 [13]": {"test_system": "HT-29", "assay": "Induction of cell cycle arrest in human HT-29 cells assessed as decrease in CDK4 protein expression upto 10 uM incubated for 24 hrs by Western blot analysis", "type": "functional, cell-based"}, "HT-29 [14]": {"test_system": "HT-29", "assay": "Induction of apoptosis in human HT-29 cells assessed as inhibition of PARP protein expression measured for 24 hrs by Western blot analysis", "type": "functional, cell-based", "conditions": "dose 0-10 µM"}, "HT-29 [15]": {"test_system": "HT-29", "assay": "Induction of apoptosis in human HT-29 cells assessed as viable cells at 5 uM incubated for 24 hrs by Annexin V-FITC/PI staining based flow cytometric analysis (reference value: 93 %)", "type": "functional", "conditions": "read-out: Activity"}, "Cell membrane [16]": {"test_system": "Cell membrane", "assay": "Disruption of mitochondrial membrane potential in human HCT-116 cells at 0.25 to 10 uM measured after 24 hrs by JC-1 staining based flow cytometry analysis", "type": "subcellular", "conditions": "dose 0.25-10 µM"}, "HT-29 [17]": {"test_system": "HT-29", "assay": "Induction of autophagic cell death in human HT-29 cells at 1 to 10 uM pretreated with 3-methyladenine for 1 hr followed by compound addition and measured after 24 hrs by SRB assay", "type": "functional, cell-based", "conditions": "dose 1-10 µM"}, "[18]": {"target": "T1, Nuclear factor NF-kappa-B complex (Homo sapiens) (UniProt Q00653+P19838+Q04206)", "T1 sequence (P19838 whole entry, looked up)": "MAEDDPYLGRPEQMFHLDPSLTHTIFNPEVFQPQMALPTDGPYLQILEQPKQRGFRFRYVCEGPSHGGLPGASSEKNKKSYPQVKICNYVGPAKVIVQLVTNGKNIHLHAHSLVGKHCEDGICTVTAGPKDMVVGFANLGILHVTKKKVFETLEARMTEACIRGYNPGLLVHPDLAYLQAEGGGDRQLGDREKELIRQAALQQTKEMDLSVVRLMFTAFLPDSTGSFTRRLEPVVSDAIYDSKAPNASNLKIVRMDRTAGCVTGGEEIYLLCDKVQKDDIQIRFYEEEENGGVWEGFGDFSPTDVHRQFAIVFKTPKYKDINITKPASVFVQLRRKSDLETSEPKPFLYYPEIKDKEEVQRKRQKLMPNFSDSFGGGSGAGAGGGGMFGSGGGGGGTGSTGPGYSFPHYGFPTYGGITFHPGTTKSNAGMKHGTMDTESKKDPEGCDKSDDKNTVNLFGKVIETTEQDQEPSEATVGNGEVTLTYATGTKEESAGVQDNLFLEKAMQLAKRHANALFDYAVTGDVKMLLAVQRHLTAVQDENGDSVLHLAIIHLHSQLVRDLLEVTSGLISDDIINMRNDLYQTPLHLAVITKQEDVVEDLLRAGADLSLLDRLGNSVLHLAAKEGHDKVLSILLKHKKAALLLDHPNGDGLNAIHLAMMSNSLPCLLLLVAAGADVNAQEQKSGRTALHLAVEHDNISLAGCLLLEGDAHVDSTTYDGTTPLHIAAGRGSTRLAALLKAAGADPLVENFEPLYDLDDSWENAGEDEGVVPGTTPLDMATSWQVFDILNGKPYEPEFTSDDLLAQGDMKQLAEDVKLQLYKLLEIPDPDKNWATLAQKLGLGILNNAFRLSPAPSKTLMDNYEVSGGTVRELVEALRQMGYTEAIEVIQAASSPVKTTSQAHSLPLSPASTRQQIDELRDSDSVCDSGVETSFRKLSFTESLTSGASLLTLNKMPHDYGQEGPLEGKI", "T1 sequence (Q00653 whole entry, looked up)": "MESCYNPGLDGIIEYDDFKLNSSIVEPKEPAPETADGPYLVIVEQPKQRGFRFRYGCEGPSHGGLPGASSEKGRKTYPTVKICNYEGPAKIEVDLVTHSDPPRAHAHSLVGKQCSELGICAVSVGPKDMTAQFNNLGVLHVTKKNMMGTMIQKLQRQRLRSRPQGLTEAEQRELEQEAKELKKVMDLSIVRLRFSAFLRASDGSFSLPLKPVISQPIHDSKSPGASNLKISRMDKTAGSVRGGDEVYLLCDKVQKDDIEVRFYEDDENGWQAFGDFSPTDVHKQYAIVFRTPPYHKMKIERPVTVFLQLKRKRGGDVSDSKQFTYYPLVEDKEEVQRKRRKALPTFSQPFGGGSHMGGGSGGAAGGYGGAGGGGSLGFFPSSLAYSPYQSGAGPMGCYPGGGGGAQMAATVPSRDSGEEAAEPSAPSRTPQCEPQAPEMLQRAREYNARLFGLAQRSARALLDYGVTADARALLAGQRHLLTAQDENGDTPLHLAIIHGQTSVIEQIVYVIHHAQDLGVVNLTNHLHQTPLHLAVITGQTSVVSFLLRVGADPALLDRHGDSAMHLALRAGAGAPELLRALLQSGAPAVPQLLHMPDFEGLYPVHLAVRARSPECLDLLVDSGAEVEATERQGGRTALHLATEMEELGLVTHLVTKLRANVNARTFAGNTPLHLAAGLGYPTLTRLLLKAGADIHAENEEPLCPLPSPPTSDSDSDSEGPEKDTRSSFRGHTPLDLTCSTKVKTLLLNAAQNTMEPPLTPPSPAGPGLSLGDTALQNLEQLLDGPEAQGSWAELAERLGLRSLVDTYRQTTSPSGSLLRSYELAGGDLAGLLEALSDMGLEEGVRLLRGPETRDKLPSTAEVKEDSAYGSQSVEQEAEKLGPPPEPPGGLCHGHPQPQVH", "T1 sequence (Q04206 whole entry, looked up)": "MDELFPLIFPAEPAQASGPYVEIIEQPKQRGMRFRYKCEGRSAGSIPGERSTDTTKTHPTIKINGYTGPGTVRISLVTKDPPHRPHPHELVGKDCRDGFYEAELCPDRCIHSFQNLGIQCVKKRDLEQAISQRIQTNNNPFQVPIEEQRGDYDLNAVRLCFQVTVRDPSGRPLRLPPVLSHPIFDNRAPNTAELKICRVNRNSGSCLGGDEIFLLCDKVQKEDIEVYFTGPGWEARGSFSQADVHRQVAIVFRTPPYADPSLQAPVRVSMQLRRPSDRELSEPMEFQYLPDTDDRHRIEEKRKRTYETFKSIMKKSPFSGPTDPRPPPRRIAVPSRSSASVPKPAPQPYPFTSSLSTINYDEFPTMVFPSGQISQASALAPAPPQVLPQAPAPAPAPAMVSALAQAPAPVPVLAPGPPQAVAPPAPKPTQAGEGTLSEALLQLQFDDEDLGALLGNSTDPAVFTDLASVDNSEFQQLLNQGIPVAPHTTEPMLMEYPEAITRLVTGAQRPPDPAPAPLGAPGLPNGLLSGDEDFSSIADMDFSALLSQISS", "assay": "Inhibition of TNF-alpha induced NFkappaB activation in human HT-29 cells assessed as inhibition of IkappaBalpha degradation at 1 to 10 uM pretreated for 24 hrs followed by TNFalpha stimulation for 10 mins by Western blot analysis", "type": "cell-based", "conditions": "dose 1-10 µM, time 1450.0 min"}, "HT-29 [19]": {"test_system": "HT-29", "assay": "Induction of apoptosis in human HT-29 cells assessed as viable cells at 5 uM preincubated with Z-VAD-FMK for 1 hr followed by compound addition and measured after 24 hrs by Annexin V-FITC/PI staining based flow cytometric analysis (reference value: 88.5 %)", "type": "functional", "conditions": "read-out: Activity"}, "HCT-116 [20]": {"test_system": "HCT-116", "assay": "Antitumor activity against human HCT-116 cells xenografted in athymic nude BALB/c mouse assessed as induction of apoptosis by measuring increase in cleaved PARP expression in tumor at 15 mg/kg, ip administered every other day and measured after 14 days by immunohistochemistry analysis", "type": "functional, organism-based", "conditions": "time 14.0 day"}, "Mus musculus [21]": {"test_system": "Mus musculus", "assay": "In vivo inhibition of NFkappaB activation in athymic BALB/c mouse xenografted with human HCT-116 cells assessed as reduction in IL-8 gene expression in tumor at 15 mg/kg, ip administered every other day and measured after 14 days by qRT-PCR analysis", "type": "functional, organism-based", "conditions": "time 14.0 day"}, "HCT-116 [22]": {"test_system": "HCT-116", "assay": "Induction of cell cycle arrest in human HCT-116 cells assessed as decrease in CDK2 protein expression upto 10 uM incubated for 24 hrs by Western blot analysis", "type": "functional, cell-based"}, "[23]": {"assay": "Toxicity in athymic nude BALB/c mouse assessed as change in serum AST level at 5 to 15 mg/kg, ip administered every other day and measured after 14 days", "type": "organism-based", "conditions": "in vivo, 336 h, dose 5-15 mg/kg, time 14 day"}, "HT-29 [24]": {"test_system": "HT-29", "assay": "Cytotoxicity against human HT-29 cells assessed as inhibition of cell growth by SRB assay", "type": "functional, cell-based", "conditions": "time 24-48 hrs, TDE = time-dependent effect"}, "HT-29 [25]": {"test_system": "HT-29", "assay": "Antitumor activity against human HT-29 cells xenografted in athymic nude BALB/c mouse assessed as reduction in tumor weight at 5 to 15 mg/kg, ip administered every other day and measured every other day for 16 days", "type": "functional, organism-based", "conditions": "dose 5-15 mg/kg, time 16.0 day"}, "HT-29 [26]": {"test_system": "HT-29", "assay": "Induction of apoptosis in human HT-29 cells assessed as increase in cleavage of PARP measured for 24 hrs by Western blot analysis", "type": "functional, cell-based", "conditions": "dose 0-10 µM"}, "HT-29 [27]": {"test_system": "HT-29", "assay": "Induction of apoptosis in human HT-29 cells assessed as early apoptotic cells at 0.25 uM incubated for 24 hrs by Annexin V-FITC/PI staining based flow cytometric analysis (reference value: 5.29 %)", "type": "functional"}, "HT-29 [28]": {"test_system": "HT-29", "assay": "Induction of apoptosis in human HT-29 cells assessed as early apoptotic cells at 5 uM incubated for 24 hrs by Annexin V-FITC/PI staining based flow cytometric analysis (reference value: 5.29 %)", "type": "functional"}, "HCT-116 [29]": {"test_system": "HCT-116", "assay": "Cytotoxicity against human HCT-116 cells assessed as decrease in cell viability incubated for 48 hrs by SRB assay", "type": "functional, cell-based", "conditions": "HCT-116, 48 h"}, "Mus musculus [30]": {"test_system": "Mus musculus", "assay": "In vivo inhibition of NFkappaB activation in athymic BALB/c mouse xenografted with human HT-29 cells assessed as reduction in MCP-1 gene expression in tumor at 5 to 15 mg/kg, ip administered every other day and measured after 14 days by qRT-PCR analysis", "type": "functional, organism-based", "conditions": "dose 5-15 mg/kg, time 14.0 day"}, "[31]": {"target": "T1, Nuclear factor NF-kappa-B complex (Homo sapiens)", "assay": "Inhibition of TNF-alpha induced NFkappaB activation in human HCT-116 cells assessed as downregulation of A20 gene expression pretreated for 24 hrs followed by TNFalpha stimulation and measured after 2 hrs by quantitative RT-PCR analysis", "type": "cell-based", "conditions": "dose 1-10 µM, time 26.0 hrs"}},
  "note": "Active and inactive are the calls of the source. The rule behind the calls is not given here.",
  "data": [
    {"smiles": "C[C@@H]1CC[C@H]2[C@H](C(=O)c3c(O)c([C@@]4(O)CC[C@@H](O)[C@H]5O[C@H]54)cn(O)c3=O)[C@H](C)C=C[C@@H]2C1", "values": [
      {"measurement": "Activity", "setting": "HCT-116 [1]", "result": 28.1, "unit": "%"},
      {"measurement": "inhibition", "setting": "Mus musculus [2]", "result": "Active"},
      {"measurement": "Activity", "setting": "HCT-116 [3]", "result": 47, "unit": "%"},
      {"measurement": "Activity", "setting": "[4]", "result": "Non-Toxic"},
      {"measurement": "Activity", "setting": "HCT-116 [5]", "result": "Dose-Dependent Effect"},
      {"measurement": "Activity", "setting": "[6]", "result": "Non-Toxic"},
      {"measurement": "Activity", "setting": "HT-29 [7]", "result": "Active"},
      {"measurement": "Activity", "setting": "HCT-116 [8]", "result": "Active"},
      {"measurement": "Activity", "setting": "HCT-116 [9]", "result": 0.52, "unit": "%"},
      {"measurement": "Activity", "setting": "HT-29 [10]", "result": 0.2, "unit": "%"},
      {"measurement": "Activity", "setting": "HT-29 [11]", "result": "Active"},
      {"measurement": "Activity", "setting": "Cell membrane [12]", "result": "Active"},
      {"measurement": "Activity", "setting": "HT-29 [13]", "result": "Active"},
      {"measurement": "Activity", "setting": "HT-29 [14]", "result": "Dose-Dependent Effect"},
      {"measurement": "viability at 5 µM", "setting": "HT-29 [15]", "result": 39.3, "unit": "%"},
      {"measurement": "Activity", "setting": "Cell membrane [16]", "result": "Active"},
      {"measurement": "Activity", "setting": "HT-29 [17]", "result": "inactive"},
      {"measurement": "inhibition", "setting": "[18]", "result": "Active"},
      {"measurement": "viability at 5 µM", "setting": "HT-29 [19]", "result": 65.5, "unit": "%"},
      {"measurement": "Activity", "setting": "HCT-116 [20]", "result": "Active"},
      {"measurement": "inhibition", "setting": "Mus musculus [21]", "result": "Active"},
      {"measurement": "Activity", "setting": "HCT-116 [22]", "result": "Active"},
      {"measurement": "Activity", "setting": "[23]", "result": "Non-Toxic"},
      {"measurement": "Activity", "setting": "HT-29 [24]", "result": "Tde"},
      {"measurement": "Activity", "setting": "HT-29 [25]", "result": "Active"},
      {"measurement": "Activity", "setting": "HT-29 [26]", "result": "Dose-Dependent Effect"},
      {"measurement": "Activity", "setting": "HT-29 [27]", "result": 12.6, "unit": "%"},
      {"measurement": "Activity", "setting": "HT-29 [28]", "result": 56.4, "unit": "%"},
      {"measurement": "IC50", "setting": "HCT-116 [29]", "result": 930, "unit": "nM"},
      {"measurement": "inhibition", "setting": "Mus musculus [30]", "result": "Active"},
      {"measurement": "inhibition", "setting": "[31]", "result": "Dose-Dependent Effect"}
    ]}
  ]
}
